Test systems include NCI-H460; SR; OVCAR-8; A498; HCT-15; HT-29; HCT-116; U-251; SF-539; UACC-257; SK-MEL-28; NCI-H522; MDA-MB-435; KM12; A549; HOP-62; 786-0; MDA-N; IGROV-1.
Holding throughout (test): NCI-60 cell line screen, 48 h

Each structure is given as a SMILES string.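 Method: 48-hour compound exposure of cells in 96-well plates, five concentrations, linear interpolation of endpoints. Here, GI50 denotes the concentration required for 50% inhibition of growth.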 Calls of active or inactive are those of the source. No stated cut-off is given here; in the data, active = GI50 up to about 1.1 µM and inactive = higher.

Regarding `COc1ccc(/C=C2\C[C@H]3[C@@H]4CCC5=C[C@@H](N6CCCC6)CC[C@]5(C)[C@H]4CC[C@]3(C)[C@H]2O)cc1`, the GI50 with NCI-H460 was 2.49 µM (inactive); in the experiment with SR it was 1.01 µM (active); with OVCAR-8 it was 3.52 µM (inactive); in the experiment with A498, 1.61 µM (inactive); with HCT-15, 1.4 µM; in the experiment on HT-29, 0.728 µM (active). Also, the GI50 in the experiment with HCT-116 was 1.98 µM (inactive); with U-251, 2.77 µM (inactive); with SF-539, 2.15 µM (inactive); in the experiment on UACC-257, 1.4 µM (inactive); in the experiment on SK-MEL-28 it was 1.87 µM (inactive); with NCI-H522 it was 2.53 µM (inactive). The GI50 in the experiment with MDA-MB-435 is 1.93 µM (inactive); in the experiment on KM12, 2.34 µM (inactive); in the experiment on A549 it was 2.58 µM (inactive); with HOP-62 it was 1.66 µM (inactive); in the experiment on 786-0, 1.53 µM (inactive); with MDA-N, 1.57 µM (inactive). In addition, the GI50 in the experiment with IGROV-1 was 4.28 µM (inactive).
For the compound `O=C(/C=C/c1ccco1)c1cccc(C(=O)/C=C/c2ccco2)n1`, the GI50 in the experiment with NCI-H460 is 42.4 µM (inactive); in the experiment on SR, 1.37 µM (inactive); in the experiment on OVCAR-8 it was 2.69 µM (inactive); with A498, > 72.1 µM (inactive); in the experiment with HCT-15 it was 4.92 µM; in the experiment with HT-29, 5.07 µM (inactive). Moreover, the GI50 with HCT-116 is 2.78 µM (inactive); in the experiment on U-251, 5.22 µM (inactive); in the experiment with SF-539 it was 5.01 µM (inactive); in the experiment on UACC-257 it was 60.7 µM (inactive); with SK-MEL-28, 15.4 µM (inactive); in the experiment with NCI-H522, 3.9 µM (inactive). Moreover, the GI50 was 48.5 µM (inactive) with MDA-MB-435; 3.98 µM (inactive) with KM12; 27.1 µM (inactive) with A549; 17.1 µM (inactive) in the experiment on HOP-62; 3.4 µM (inactive) in the experiment on 786-0; 10.7 µM (inactive) in the experiment with MDA-N. In addition, the GI50 in the experiment with IGROV-1 is 6.82 µM (inactive).
For the compound `C=CCOC1(CC=C)C(=O)OC2C(O)COC21O` (stereo not drawn), the GI50 in the experiment on NCI-H460 is > 100 µM (inactive); in the experiment with SR, > 100 µM (inactive); in the experiment with OVCAR-8, > 100 µM (inactive); with A498, > 100 µM (inactive); with HCT-15, above 100 µM; with HT-29 it was > 100 µM (inactive). Besides, the GI50 in the experiment with HCT-116, in the experiment on U-251, in the experiment on SF-539, in the experiment with UACC-257, with SK-MEL-28 and with NCI-H522 was > 100 µM (inactive) in each case. Moreover, the GI50 in the experiment on MDA-MB-435, in the experiment with KM12, in the experiment on A549, in the experiment with HOP-62, in the experiment on 786-0 and in the experiment on MDA-N was > 100 µM (inactive) each time. In addition, the GI50 in the experiment on IGROV-1 was > 100 µM (inactive).
Consider `O=C1Nc2ccccc2/C1=C/c1ccccc1`, for which the GI50 in the experiment on NCI-H460 is 15.5 µM (inactive); with SR it was 14.4 µM (inactive); with OVCAR-8, 18.8 µM (inactive); with A498, 13.5 µM (inactive); with HCT-15 it was 14 µM; with HT-29, 22.6 µM (inactive). The GI50 in the experiment with HCT-116 was 14 µM (inactive); in the experiment on U-251 it was 15 µM (inactive); in the experiment with SF-539 it was 15.4 µM (inactive); with UACC-257, 15 µM (inactive); in the experiment with SK-MEL-28, 20.8 µM (inactive); with NCI-H522, 15.8 µM (inactive). Moreover, the GI50 was 15.8 µM (inactive) in the experiment on MDA-MB-435; 15.3 µM (inactive) with KM12; 25.2 µM (inactive) in the experiment on A549; 18 µM (inactive) with HOP-62; 13.8 µM (inactive) in the experiment with 786-0; 17.7 µM (inactive) with MDA-N. The GI50 in the experiment with IGROV-1 was 11.7 µM (inactive).
Consider `CCOC(=O)c1ccc(NCc2ccc3oc(=O)c(-c4ccccc4)nc3c2)cc1`, for which the GI50 was > 100 µM (inactive) with NCI-H460; 34.9 µM (inactive) in the experiment on SR; 18.8 µM (inactive) in the experiment on OVCAR-8; 61.1 µM (inactive) with A498; 81.5 µM in the experiment on HCT-15; 57.4 µM (inactive) with HT-29. The GI50 was 29.8 µM (inactive) in the experiment with HCT-116; 61.2 µM (inactive) in the experiment with U-251; > 100 µM (inactive) in the experiment on SF-539; 20.3 µM (inactive) in the experiment with UACC-257; 30.7 µM (inactive) in the experiment on SK-MEL-28; 6.21 µM (inactive) in the experiment with NCI-H522. The GI50 in the experiment with MDA-MB-435 was 16.2 µM (inactive); in the experiment on KM12 it was > 100 µM (inactive); in the experiment on A549, 68.5 µM (inactive); in the experiment with HOP-62, > 100 µM (inactive); in the experiment on 786-0 it was 34.5 µM (inactive); with MDA-N, 21.5 µM (inactive). Moreover, the GI50 in the experiment with IGROV-1 was 67 µM (inactive).
With `CN(C)c1cccc2c(S(=O)(=O)NCCCNCCN)cccc12`, the GI50 in the experiment with NCI-H460 is 62.4 µM (inactive); in the experiment on SR, 19.1 µM (inactive); with A498 it was 29.6 µM (inactive); in the experiment on HCT-15, above 100 µM; in the experiment on HT-29, 25.9 µM (inactive); in the experiment on HCT-116 it was 36.2 µM (inactive). Further, the GI50 in the experiment with U-251 is 29 µM (inactive); in the experiment on SF-539, 21.3 µM (inactive); with UACC-257, > 100 µM (inactive); with SK-MEL-28, 46.1 µM (inactive); with NCI-H522, 48.1 µM (inactive); in the experiment on MDA-MB-435, 27.4 µM (inactive). The GI50 with KM12 is 67 µM (inactive); in the experiment with A549, 66.5 µM (inactive); in the experiment with HOP-62, 67.8 µM (inactive); with 786-0, 53.1 µM (inactive); in the experiment with MDA-N it was 26.2 µM (inactive); in the experiment with IGROV-1 it was 67.9 µM (inactive).
For `CC(=O)OCC(Br)C1(C)CCC(C(C)(C)Br)O1` (stereo not drawn), the GI50 with NCI-H460 was 57.9 µM (inactive); in the experiment on SR, 77.1 µM (inactive); in the experiment on A498 it was > 100 µM (inactive); in the experiment on HT-29 it was 62.7 µM (inactive); in the experiment on HCT-116 it was 46.8 µM (inactive); in the experiment on U-251, 73.5 µM (inactive). For the same compound, the GI50 with SF-539 was > 100 µM (inactive); in the experiment with UACC-257, 12.1 µM (inactive); in the experiment with SK-MEL-28 it was 79.6 µM (inactive); in the experiment on NCI-H522, 28.5 µM (inactive); in the experiment on MDA-MB-435 it was 69.5 µM (inactive); with KM12 it was 39.8 µM (inactive). The GI50 in the experiment on A549 was 63.8 µM (inactive); in the experiment with HOP-62, > 100 µM (inactive); in the experiment on 786-0, > 100 µM (inactive); in the experiment with MDA-N it was 44.7 µM (inactive); with IGROV-1 it was 80.2 µM (inactive).
`O=C1Cc2c([nH]c3ccc(Br)cc23)-c2ccccc2N1` [KENPAULLONE]: the GI50 in the experiment on NCI-H460 was > 100 µM (inactive); in the experiment with SR it was 4.21 µM (inactive); with OVCAR-8 it was > 100 µM (inactive); in the experiment on A498 it was > 100 µM (inactive); in the experiment on HCT-15 it was 4.46 µM; in the experiment with HT-29 it was 5.19 µM (inactive). The GI50 in the experiment with U-251 is > 51.5 µM (inactive); in the experiment with SF-539, 2.43 µM (inactive); in the experiment on UACC-257, > 100 µM (inactive); in the experiment on SK-MEL-28 it was > 62.4 µM (inactive); in the experiment with NCI-H522, > 100 µM (inactive); with MDA-MB-435, > 100 µM (inactive). Also, the GI50 in the experiment with KM12 was 2.73 µM (inactive); in the experiment on A549, > 90.2 µM (inactive); in the experiment on HOP-62 it was 65.8 µM (inactive); in the experiment on 786-0, > 46.3 µM (inactive); in the experiment on MDA-N it was > 100 µM (inactive); in the experiment on IGROV-1, 9.75 µM (inactive).

The record behind these values is ChEMBL document CHEMBL1201862, “PubChem BioAssay data set” (2004).
